In patent US9730940B2, “Purine inhibitors of human phosphatidylinositol 3-kinase delta” (priority 2012, dated 2017):

biological target: PI3K-alpha (Homo sapiens (Human), UniProt P42336); experiment: HTRF PI3K biochemical assay, alpha isoform; details: ratio PI3K-alpha IC50 value/PI3K-delta IC50 value
Sequence (P42336 whole entry, looked up, canonical isoform): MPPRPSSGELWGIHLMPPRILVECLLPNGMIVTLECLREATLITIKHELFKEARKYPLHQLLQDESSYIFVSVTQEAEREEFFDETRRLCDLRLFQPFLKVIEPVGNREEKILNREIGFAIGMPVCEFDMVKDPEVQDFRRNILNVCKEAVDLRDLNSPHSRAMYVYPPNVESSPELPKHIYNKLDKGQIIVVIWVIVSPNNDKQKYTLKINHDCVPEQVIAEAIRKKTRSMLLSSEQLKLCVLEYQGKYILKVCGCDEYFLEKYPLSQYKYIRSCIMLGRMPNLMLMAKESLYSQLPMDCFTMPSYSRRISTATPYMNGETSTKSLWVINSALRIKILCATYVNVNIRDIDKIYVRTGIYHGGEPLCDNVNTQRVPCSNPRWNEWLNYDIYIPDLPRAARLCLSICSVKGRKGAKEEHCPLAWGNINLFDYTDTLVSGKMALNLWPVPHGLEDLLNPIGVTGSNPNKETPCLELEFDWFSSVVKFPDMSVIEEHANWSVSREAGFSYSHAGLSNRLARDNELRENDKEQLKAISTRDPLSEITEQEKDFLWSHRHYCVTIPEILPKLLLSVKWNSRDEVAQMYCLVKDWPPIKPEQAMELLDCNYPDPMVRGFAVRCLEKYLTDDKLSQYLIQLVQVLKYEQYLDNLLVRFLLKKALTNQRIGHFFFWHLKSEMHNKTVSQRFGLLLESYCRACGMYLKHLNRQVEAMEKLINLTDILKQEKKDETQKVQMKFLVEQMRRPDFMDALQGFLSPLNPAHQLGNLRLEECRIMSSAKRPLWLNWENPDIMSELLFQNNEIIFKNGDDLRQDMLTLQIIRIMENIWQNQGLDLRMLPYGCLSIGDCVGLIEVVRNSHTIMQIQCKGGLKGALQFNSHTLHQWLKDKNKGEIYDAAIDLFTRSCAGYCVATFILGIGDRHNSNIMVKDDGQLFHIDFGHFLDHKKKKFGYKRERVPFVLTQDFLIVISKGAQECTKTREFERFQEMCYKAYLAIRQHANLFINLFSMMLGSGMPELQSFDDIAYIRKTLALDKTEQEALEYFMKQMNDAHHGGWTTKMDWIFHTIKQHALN
Sequence (P27986 whole entry partner, looked up, canonical isoform): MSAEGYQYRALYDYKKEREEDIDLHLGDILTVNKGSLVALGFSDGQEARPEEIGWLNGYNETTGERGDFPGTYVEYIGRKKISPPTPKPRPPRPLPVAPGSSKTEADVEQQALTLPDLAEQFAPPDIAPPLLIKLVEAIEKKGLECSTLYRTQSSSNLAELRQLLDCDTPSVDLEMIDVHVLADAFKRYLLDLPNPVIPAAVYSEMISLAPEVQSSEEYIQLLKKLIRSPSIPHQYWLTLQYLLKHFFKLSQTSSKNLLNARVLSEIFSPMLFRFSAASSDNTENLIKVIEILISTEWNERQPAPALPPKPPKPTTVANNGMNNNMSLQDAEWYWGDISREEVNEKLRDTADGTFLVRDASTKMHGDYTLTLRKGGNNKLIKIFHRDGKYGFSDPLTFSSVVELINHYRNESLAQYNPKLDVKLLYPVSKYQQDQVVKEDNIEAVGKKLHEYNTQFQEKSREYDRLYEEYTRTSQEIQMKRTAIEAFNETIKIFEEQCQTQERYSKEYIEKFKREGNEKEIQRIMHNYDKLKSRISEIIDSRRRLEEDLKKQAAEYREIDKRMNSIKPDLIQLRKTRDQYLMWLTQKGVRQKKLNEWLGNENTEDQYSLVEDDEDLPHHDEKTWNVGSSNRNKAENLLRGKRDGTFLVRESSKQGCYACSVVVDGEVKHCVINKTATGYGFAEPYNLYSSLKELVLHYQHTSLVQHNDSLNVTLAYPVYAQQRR

Compound	Relative Selectivity versus PI3Kalpha
CCn1c(-c2cnc(N)c(C(F)(F)F)c2)nc2c(O[C@H]3CCN(C(=O)C4CC4)C3)ncnc21 [Compound 3-44, 5-(6-{[(3S)-1-(cyclopropylcarbonyl)pyrrolidin-3-yl]oxy}-9-ethyl-9H-purin-8-yl)-3-(trifluoromethyl)pyridin-2-amine]	>10
CCn1c(-c2cnc(N(C)C)nc2)nc2c(O[C@H]3CCN(C(=O)C4CC4)C3)ncnc21 [Compound 3-45, 5-(6-{[(3S)-1-(cyclopropylcarbonyl)pyrrolidin-3-yl]oxy}-9-ethyl-9H-purin-8-yl)-N,N-dimethylpyrimidin-2-amine]	>10
CCC1CN(C(=O)C2CC2)CC1Oc1ncnc2c1nc(-c1cnc(C)nc1)n2CC (stereo not shown) [Compound 3-46, [3R,4S and 3S,4R]-6-{[1-(cyclopropylcarbonyl)-4-ethylpyrrolidin-3-yl]oxy}-9-ethyl-8-(2-methylpyrimidin-5-yl)-9H-purine]	>10
CCn1c(-c2ccc(OC)cn2)nc2c(O[C@H]3CCN(C(=O)C4CC4)C3)ncnc21 [Compound 3-48, 6-{[(3S)-1-(cyclopropylcarbonyl)pyrrolidin-3-yl]oxy}-9-ethyl-8-(5-methoxypyridin-2-yl)-9H-purine]	>10
CCn1c(-c2cnc(OC)c(C)c2)nc2c(O[C@H]3CCN(C(=O)C4CC4)C3)ncnc21 [Compound 3-49, 6-{[(3S)-1-(cyclopropylcarbonyl)pyrrolidin-3-yl]oxy}-9-ethyl-8-(6-methoxy-5-methylpyridin-3-yl)-9H-purine]	>10
CCn1c(-c2ccc(OC)nc2)nc2c(O[C@H]3CCN(C(=O)C(C)C)C3)ncnc21 [Compound 3-50, 9-ethyl-8-(6-methoxypyridin-3-yl)-6-{[(3S)-1-(2-methylpropanoyl)pyrrolidin-3-yl]oxy}-9H-purine]	>10
CCn1c(-c2ccc(OC)nc2)nc2c(O[C@H]3CCN(C(=O)C4CC(F)(F)C4)C3)ncnc21 [Compound 3-51, 6-({(3S)-1-[(3,3-difluorocyclobutyl)carbonyl]pyr-rolidin-3-yl}oxy)-9-ethyl-8-(6-methoxypyridin-3-yl)-9H-purine]	>10
CCn1c(-c2ccc(OC)nc2)nc2c(O[C@H]3CCN(C(=O)C4CCOCC4)C3)ncnc21 [Compound 3-52, 9-ethyl-8-(6-methoxypyridin-3-yl)-6-{[(3S)-1-(tetrahydro-2H-pyran-4-ylcarbonyl)pyrrolidin-3-yl]oxy}-9H-purine]	>10
CCn1c(-c2cnc(OC)c(F)c2)nc2c(O[C@H]3CCN(C(=O)C4CC4)C3)ncnc21 [Compound 3-53, 6-{[(3S)-1-(cyclopropylcarbonyl)pyrrolidin-3-yl]oxy}-9-ethyl-8-(5-fluoro-6-methoxypyridin-3-yl)-9H-purine]	>10
CCn1c(-c2cnc(OC)c(F)c2)nc2c(O[C@H]3CCN(C(=O)C(C)C)C3)ncnc21 [Compound 3-54, 9-ethyl-8-(5-fluoro-6-methoxypyridin-3-yl)-6-{[(3S)-1-(2-methylpropanoyl)pyrrolidin-3-yl]oxy}-9H-purine]	>10
CCn1c(-c2cnc(OC)c(F)c2)nc2c(O[C@H]3CCN(C(=O)C4CC(F)(F)C4)C3)ncnc21 [Compound 3-55, 6-({(3S)-1-[(3,3-difluorocyclobutyl)carbonyl]pyr-rolidin-3-yl}oxy)-9-ethyl-8-(5-fluoro-6-methoxypyridin-3-yl)-9H-purine]	>10
CCn1c(-c2cnc(OC)c(F)c2)nc2c(O[C@H]3CCN(C(=O)C4CCOCC4)C3)ncnc21 [Compound 3-56, 9-ethyl-8-(5-fluoro-6-methoxypyridin-3-yl)-6-{[(3S)-1-(tetrahydro-2H-pyran-4-ylcarbonyl)pyrrolidin-3-yl]oxy}-9H-purine]	>10
CCn1c(-c2cnc(OC)c(F)c2)nc2c(O[C@H]3CCN(C(=O)c4ccn(C)n4)C3)ncnc21 [Compound 3-57, 9-ethyl-8-(5-fluoro-6-methoxypyridin-3-yl)-6-({(3S)-1-[(1-methyl-1H-pyrazol-3-yl)carbonyl]pyrrolidin-3-yl}oxy)-9H-purine]	>10
CCn1c(-c2cnc(OC)c(F)c2)nc2c(O[C@H]3CCN(C(=O)c4cncn4C)C3)ncnc21 [Compound 3-58, 9-ethyl-8-(5-fluoro-6-methoxypyridin-3-yl)-6-({(3S)-1-[(1-methyl-1H-imidazol-5-yl)carbonyl]pyrrolidin-3-yl}oxy)-9H-purine]	>10
CCn1c(-c2cnn3c2CCCC3)nc2c(O[C@H]3CCN(C(=O)C4CC4)C3)ncnc21 [Compound 3-59, 6-{[(3S)-1-(cyclopropylcarbonyl)pyrrolidin-3-yl]oxy}-9-ethyl-8-(4,5,6,7-tetrahydropyrazolo[1,5-a]pyridin-3-yl)-9H-purine]	>10
CCn1c(-c2cnn3c2CCCC3)nc2c(O[C@H]3CCN(C(=O)C(C)C)C3)ncnc21 [Compound 3-60, 9-ethyl-6-{[(3S)-1-(2-methylpropanoyl)pyrrolidin-3-yl]oxy}-8-(4,5,6,7-tetrahydropyrazolo[1,5-a]pyridin-3-yl)-9H-purine]	>10
CCn1ncc(-c2nc3c(O[C@H]4CCN(C(=O)C5CCOCC5)C4)ncnc3n2CC)c1C [Compound 3-61, (S)-(3-((9-ethyl-8-(1-ethyl-5-methyl-1H-pyrazol-4-yl)-9H-purin-6-yl)oxy)pyrrolidin-1-yl)(tetrahydro-2H-pyran-4-yl)methanone]	>10
CCn1c(-c2cnc(C)nc2)nc2c(OC3CN(C(=O)C4CC4)CC34CC4)ncnc21 (stereo not shown) [Compound 3-63, (R— or S—)-6-{[5-(cyclopropylcarbonyl)-5-azaspiro[2.4]hept-7-yl]oxy}-9-ethyl-8-(2-methylpyrimidin-5-yl)-9H-purine]	>10
CCn1c(-c2cnc(C)nc2)nc2c(OC3CN(C(=O)C4CC4)CC34CC4)ncnc21 (stereo not shown) [Compound 3-64, (R— or S—)-6-{[5-(cyclopropylcarbonyl)-5-azaspiro[2.4]hept-7-yl]oxy}-9-ethyl-8-(2-methylpyrimidin-5-yl)-9H-purine]	>10
CCn1c(-c2cnc(C)nc2)nc2c(O[C@H]3CCN(S(=O)(=O)CC)C3)ncnc21 [Compound 4-8, (S)-9-ethyl-6-((1-(ethylsulfonyl)pyrrolidin-3-yl)oxy)-8-(2-methylpyrimidin-5-yl)-9H-purine]	>10
CCn1ncc(-c2nc3c(O[C@H]4CCN(C(=O)NC(C)C)C4)ncnc3n2C)c1C [Compound 5-3, (3S)-3-{[8-(1-ethyl-5-methyl-1H-pyrazol-4-yl)-9-methyl-9H-purin-6-yl]oxy}-N-(1-methylethyl)pyrrolidine-1-carboxamide]	>10
CCn1ncc(-c2nc3c(O[C@H]4CCN(C(=O)NC(C)(C)CC(C)(C)C)C4)ncnc3n2C)c1C [Compound 5-4, (3S)-3-{[8-(1-ethyl-5-methyl-1H-pyrazol-4-yl)-9-methyl-9H-purin-6-yl]oxy}-N-(1,1,3,3-tetramethylbutyl)pyrrolidine-1-carboxamide]	>10
